Some test systems named below: SNB-19; HT-29; SK-OV-3; CCRF-CEM; Malme-3M; IGROV-1; NCI-H226; UO-31; MCF7; SR; 786-0; MDA-MB-231; LOX IMVI; COLO 205; DU-145; SF-268; NCI/ADR-RES.
Holding throughout (assay): DTP human tumour cell line panel, 48 h

This note sets out measurements from ChEMBL document CHEMBL1201862, “PubChem BioAssay data set” (2004).

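Briefly, cells in 96-well plates were exposed to five compound concentrations for 48 h, and endpoints were estimated by linear interpolation. GI50 marks 50% less growth.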 The source made the active and inactive calls. No stated cut-off is given here; in the data, active = GI50 up to about 1.1 µM and inactive = higher. Some results are limits rather than exact numbers.

The GI50 is the concentration that inhibits growth by half. For the molecule `CC(C)(C)c1cc(C(=O)/C=C/c2cc[nH]n2)cc(C(C)(C)C)c1O`, the GI50 in the assay with SNB-19 is 3.87 µM (inactive); in the assay on HT-29, 2.61 µM (inactive); with SK-OV-3 it was 15.7 µM (inactive); in the assay with CCRF-CEM it was 2.07 µM (inactive); in the assay with Malme-3M, 7.29 µM (inactive); with IGROV-1, 1.93 µM (inactive). In addition, the GI50 was 5.73 µM (inactive) with NCI-H226; 1.76 µM (inactive) in the assay with UO-31; 1.36 µM (inactive) with MCF7; 1.19 µM (inactive) in the assay on SR; 1.58 µM (inactive) in the assay on 786-0; 1.91 µM (inactive) in the assay with MDA-MB-231. The GI50 in the assay on LOX IMVI is 1.85 µM (inactive); with COLO 205, 2.07 µM (inactive); in the assay on DU-145 it was 2.56 µM (inactive); in the assay with SF-268, 2.4 µM (inactive); with NCI/ADR-RES, 4.62 µM (inactive).
For `NNc1nncn1N`, the GI50 in the assay with SNB-19 was > 100 µM (inactive); in the assay with HT-29, > 100 µM (inactive); in the assay with SK-OV-3, > 100 µM (inactive); in the assay with CCRF-CEM, 1.25 µM (inactive); in the assay on Malme-3M it was > 55 µM (inactive); in the assay on IGROV-1, > 100 µM (inactive). The GI50 with NCI-H226 is > 100 µM (inactive); with UO-31, 84.1 µM (inactive); with MCF7, > 100 µM (inactive); in the assay on SR it was 39.1 µM (inactive); in the assay with 786-0, > 80 µM (inactive); with MDA-MB-231, > 100 µM (inactive). The GI50 in the assay on LOX IMVI is > 90.4 µM (inactive); in the assay on COLO 205, > 100 µM (inactive); with DU-145, > 55.2 µM (inactive); in the assay with SF-268, > 100 µM (inactive); with NCI/ADR-RES, > 90.6 µM (inactive).
Turning to `CC(=O)C(=C(c1ccccc1)c1ccccc1)c1ccccc1`, the GI50 is > 100 µM (inactive) in the assay on SNB-19; > 100 µM (inactive) in the assay on HT-29; > 100 µM (inactive) in the assay with SK-OV-3; 40.7 µM (inactive) in the assay with CCRF-CEM; > 100 µM (inactive) with Malme-3M; > 100 µM (inactive) with NCI-H226. Also, the GI50 in the assay on UO-31 is > 100 µM (inactive); in the assay with MCF7 it was > 100 µM (inactive); in the assay on SR it was 31.8 µM (inactive); in the assay on 786-0 it was > 100 µM (inactive); with MDA-MB-231, > 100 µM (inactive); in the assay on LOX IMVI it was > 100 µM (inactive). In addition, the GI50 with COLO 205, with DU-145, with SF-268 and in the assay with NCI/ADR-RES was > 100 µM (inactive) each time.
For the molecule `O=c1cc(/N=N/c2ccc(O)cc2)[nH]c(=O)[nH]1`, the GI50 was > 100 µM (inactive) with SNB-19; 67.8 µM (inactive) with HT-29; > 100 µM (inactive) in the assay on SK-OV-3; 28.8 µM (inactive) in the assay on Malme-3M; > 100 µM (inactive) in the assay on IGROV-1; > 100 µM (inactive) with NCI-H226. The GI50 is > 100 µM (inactive) with UO-31; > 100 µM (inactive) in the assay on MCF7; > 100 µM (inactive) with SR; 39.8 µM (inactive) in the assay with 786-0; > 100 µM (inactive) in the assay with MDA-MB-231; 79.6 µM (inactive) in the assay on LOX IMVI. Moreover, the GI50 is > 100 µM (inactive) in the assay with COLO 205, > 100 µM (inactive) with DU-145, 40.5 µM (inactive) with SF-268 and > 100 µM (inactive) in the assay with NCI/ADR-RES.
`Cc1cc(C)n2nc3nc(N)c(C#N)c(-c4ccccc4)c3c2n1`: the GI50 with SNB-19, in the assay on HT-29, with SK-OV-3, with CCRF-CEM, in the assay on Malme-3M and in the assay on IGROV-1 was > 100 µM (inactive) in each case. For the same molecule, the GI50 with NCI-H226 was > 78.5 µM (inactive); with UO-31, > 100 µM (inactive); with MCF7, > 100 µM (inactive); in the assay with SR it was > 100 µM (inactive); in the assay on 786-0, > 100 µM (inactive); with MDA-MB-231, > 100 µM (inactive). Moreover, the GI50 in the assay with LOX IMVI, in the assay on COLO 205, in the assay with DU-145, in the assay on SF-268 and in the assay on NCI/ADR-RES was > 100 µM (inactive) in each case.
For `Sc1nnc(Cc2ccc(Cl)cc2)[nH]1`, the GI50 is 71 µM (inactive) with SNB-19; > 100 µM (inactive) with HT-29; 68.5 µM (inactive) in the assay with SK-OV-3; 63.1 µM (inactive) with CCRF-CEM; 29.1 µM (inactive) in the assay on Malme-3M; 44.5 µM (inactive) in the assay on IGROV-1. For the same molecule, the GI50 with NCI-H226 was 65.5 µM (inactive); with UO-31, 32.4 µM (inactive); in the assay with MCF7, 51.9 µM (inactive); in the assay with SR, 58.6 µM (inactive); in the assay with 786-0, 61.4 µM (inactive); in the assay with MDA-MB-231 it was 42.3 µM (inactive). Also, the GI50 with LOX IMVI was 38.1 µM (inactive); in the assay with COLO 205, 48 µM (inactive); in the assay on DU-145 it was 67 µM (inactive); in the assay with NCI/ADR-RES, 42.1 µM (inactive).
As to `CC(C)NCCCNc1c2ccccc2nc2cccc([N+](=O)[O-])c12`, the GI50 with SNB-19 is 0.0499 µM (active); in the assay on HT-29, 0.00202 µM (active); in the assay on SK-OV-3, 0.0566 µM (active); with CCRF-CEM it was 0.0142 µM (active); with Malme-3M, 0.0133 µM (active); in the assay with IGROV-1, < 0.001 µM (active). Besides, the GI50 in the assay with NCI-H226 was 0.0219 µM (active); in the assay on UO-31, 0.123 µM (active); in the assay on MCF7, < 0.001 µM (active); in the assay on SR, < 0.001 µM (active); in the assay on 786-0, 0.00445 µM (active); in the assay on MDA-MB-231 it was 0.0132 µM (active). Besides, the concentration for 50% growth inhibition (GI50) is 0.0101 µM (active) with LOX IMVI; 0.00161 µM (active) in the assay on COLO 205; 0.0065 µM (active) in the assay on DU-145; 0.00757 µM (active) with SF-268; 0.794 µM (active) in the assay with NCI/ADR-RES.
Regarding `O=S(=O)(O)CCCc1cccc2ccccc12`, the GI50 in the assay with SNB-19, in the assay with HT-29, in the assay on SK-OV-3, in the assay on CCRF-CEM, in the assay on Malme-3M and in the assay on IGROV-1 was > 100 µM (inactive) each time. In addition, the GI50 in the assay on NCI-H226, in the assay with UO-31, in the assay with MCF7, in the assay on SR, in the assay on 786-0 and in the assay with MDA-MB-231 was > 100 µM (inactive) in each case. For the same molecule, the GI50 with LOX IMVI, in the assay on COLO 205, in the assay with DU-145, in the assay on SF-268 and in the assay with NCI/ADR-RES was > 100 µM (inactive) throughout.
As for `C[C@H](CCC(=O)O)[C@H]1CC[C@H]2[C@@H]3[C@@H](O)C[C@@H]4C[C@H](O)CC[C@]4(C)[C@H]3CC[C@]12C` [URSODIOL], the GI50 in the assay with SNB-19, in the assay with HT-29, in the assay on CCRF-CEM, with Malme-3M, with IGROV-1 and in the assay with NCI-H226 was > 100 µM (inactive) in each case. For the same molecule, the GI50 in the assay with UO-31 was 70 µM (inactive); in the assay on MCF7, > 100 µM (inactive); in the assay on SR it was 25.1 µM (inactive); in the assay with 786-0, > 100 µM (inactive); with MDA-MB-231, > 100 µM (inactive); in the assay on LOX IMVI it was > 100 µM (inactive). The GI50 in the assay on COLO 205, with DU-145, in the assay on SF-268 and with NCI/ADR-RES was > 100 µM (inactive) each time.
